Here are results for five compounds from patent US4450269A, “Mono-5-substituted-3-chloro-4H-1,2,6-thiadiazin-4-one antifungal agents” (FMC Corporation, priority 1980, dated 1984).

One assay concerns Venturia inaequalis. Nature of the assay: Spore germination test. It counts as cell-based. The conditions noted are these: VI, 48 hours. The essentials:
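Compound from acetone stock mixed into water agar at 40, 10, 2.5 and 1 ppm; plated quadrants inoculated with spore suspension in sterile water. Incubation 48 hours at 24° C, then percentage of germinated spores counted and converted to a germination rating.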

The next assay relates to Pythium ultimum. Put plainly: Mycelial growth test. It counts as cell-based. The conditions noted are these: Globisporangium ultimum, 72 h, PU, read-out: Percent Fungus Growth Inhibition.
The test system of the next assay is Uromyces phaseoli. Nature of the assay: whole plant or invertebrate. The note with it: foliar, 24 h, read-out: Percent Disease Control, curative, bean rust.

By inhibition is commonly meant the drop in the measured response relative to a control, in per cent. As for `Cc1cc(Cl)ccc1Oc1nsnc(Cl)c1=O` [Compound 55, 3-chloro-5-(4-chloro-2-methylphenoxy)-4H--1,2,6-thiadiazin-4-one], in the assay with Venturia inaequalis (1.0 ppm), the “Spore Germination Rating” value was 1 (10-40). Further, the “Spore Germination Rating” value with Venturia inaequalis (2.5 ppm) is given as 0 (0-10). The “Spore Germination Rating” value in the assay with Venturia inaequalis (10 ppm) is reported as 0 (0-10). In addition, the “Spore Germination Rating” value with Venturia inaequalis (40 ppm) is 0 (0-10). In the assay with Pythium ultimum, the inhibition at 5 ppm was found to be 42%, the inhibition at 10 ppm turned out to be 64%, the inhibition at 20 ppm was determined as 33% and the inhibition at 40 ppm was found to be 47%. Further, in the assay on Uromyces phaseoli, the pest or weed control at 150 ppm came out at 0%.
On to `Cc1ccc(Oc2nsnc(Cl)c2=O)c(Br)c1` [Compound 57, 3-[(2-bromo-4-methyl)-phenoxy]-5-chloro-4H--1,2,6-thiadiazin-4-one], for which the “Spore Germination Rating” value is 2 (40-60) in the assay on Venturia inaequalis (1.0 ppm), 0 (0-10) in the assay on Venturia inaequalis (2.5 ppm), 0 (0-10) in the assay on Venturia inaequalis (10 ppm) and 0 (0-10) with Venturia inaequalis (40 ppm). Moreover, in the assay on Pythium ultimum, the inhibition at 5 ppm stood at 42%. For the same compound, the inhibition at 10 ppm in the assay with Pythium ultimum amounted to 60%. Also, the inhibition at 20 ppm with Pythium ultimum came to 100%. The inhibition at 40 ppm in the assay on Pythium ultimum is 100%. Also, the pest or weed control at 150 ppm in the assay on Uromyces phaseoli is 0%.
As for `Cc1cc(Cl)c(Oc2nsnc(Cl)c2=O)cc1C` [Compound 58, 3-chloro-5-[(2-chloro-4,5-dimethyl)phenoxy]-4H--1,2,6-thiadiazin-4-one], in the assay with Venturia inaequalis (1.0 ppm), the “Spore Germination Rating” value is recorded as 2 (40-60). Further, in the assay with Venturia inaequalis (2.5 ppm), the “Spore Germination Rating” value was 1 (10-40). In addition, the “Spore Germination Rating” value in the assay with Venturia inaequalis (10 ppm) was 0 (0-10). In the assay with Venturia inaequalis (40 ppm), the “Spore Germination Rating” value is given as 0 (0-10). In the assay on Pythium ultimum, the inhibition at 5 ppm was 13%, the inhibition at 10 ppm was 24%, the inhibition at 20 ppm was 0% and the inhibition at 40 ppm amounted to 13%. Also, the pest or weed control at 150 ppm with Uromyces phaseoli amounted to 0%.
For the compound `Cc1cc(Oc2nsnc(Cl)c2=O)cc(C)c1Cl` [Compound 59, 3-chloro-5-[(4-chloro-3,5-dimethyl)phenoxy]-4H--1,2,6-thiadiazin-4-one], the “Spore Germination Rating” value in the assay on Venturia inaequalis (1.0 ppm) is 1 (10-40); in the assay on Venturia inaequalis (2.5 ppm) it was 1 (10-40); with Venturia inaequalis (10 ppm), 0 (0-10); in the assay on Venturia inaequalis (40 ppm), 1 (10-40). Also, the inhibition at 5 ppm in the assay with Pythium ultimum was determined as 0%. For the same compound, the inhibition at 10 ppm with Pythium ultimum was found to be 0%. Besides, in the assay with Pythium ultimum, the inhibition at 20 ppm was 0%. Also, in the assay on Pythium ultimum, the inhibition at 40 ppm is 29%. For the same compound, the pest or weed control at 150 ppm in the assay with Uromyces phaseoli was 0%.
As to `Cc1cc(Oc2nsnc(Cl)c2=O)cc(C)c1Br` [Compound 60, 3-[(4-bromo-3,5-dimethyl)-phenoxy]-5-chloro-4H--1,2,6-thiadiazin-4-one], the “Spore Germination Rating” value with Venturia inaequalis (1.0 ppm) is given as 2 (40-60). Moreover, the “Spore Germination Rating” value in the assay with Venturia inaequalis (2.5 ppm) is recorded as 1 (10-40). In addition, the “Spore Germination Rating” value with Venturia inaequalis (10 ppm) was 0 (0-10). For the same compound, the “Spore Germination Rating” value in the assay with Venturia inaequalis (40 ppm) is recorded as 0 (0-10). Besides, in the assay with Pythium ultimum, the inhibition at 5 ppm amounted to 9%, the inhibition at 10 ppm stood at 0%, the inhibition at 20 ppm came to 0% and the inhibition at 40 ppm amounted to 13%. For the same compound, the pest or weed control at 150 ppm in the assay with Uromyces phaseoli turned out to be 0%.
